Data from US11377427B2, “Triazoles for regulating intracellular calcium homeostasis” (UNIVERSIDAD DEL PAIS VASCO, priority 2016, dated 2022).
One block for each compound: values may come before it.

Experiments:
[1] = tested on: left ventricle of a rat heart; details: concentrations of 10^-6 M; in vitro; without affecting left ventricular heart rate or pressure; cited from earlier work
[2] = tested on: human control myotubes LHCN-M2; assay: In vitro toxicity in human myotubes, CytoTox 96 colorimetric assay; assay type: cell-based; details: 24 hours of incubation
Experimental: These assays were carried out in human control myotubes LHCN-M2 after 14 days in differentiation medium. To determine the toxicity of the different analyzed compounds, particularly AHK1 and AHK2 according to the invention, these compounds were added to the culture medium for 24 hours at 37° C. at different concentrations (0-2 mM). For comparison purposes, the same assay was performed by adding reference compound S-107. Cell viability was determined by means of Cytotox 96 (Promega) colorimetric assay following instructions in the manual.

[3] = tested on: fibers isolated from mouse flexor digitorum brevis muscle (dystrophic MDX fibers); assay: Baseline intracellular calcium levels in mouse muscle fibers (Fura 2-AM); assay type: cell-based; details: 150 nM, overnight treatment; FIG. 2
Experimental: Fibers isolated from mouse flexor digitorum brevis muscle were cultured overnight in the presence or absence of compounds AHK1 and AHK2 at a concentration of 150 nM. Baseline intracellular calcium levels were evaluated by means of incubating the fibers with Fura 2-AM ratiometric fluorochrome (4 μM) and pluronic acid (0.02%) for 30 minutes at 37° C., in the culture medium. The fibers were viewed with a high-resolution digital camera and intracellular [Ca^2+] was estimated by means of a 340 nm/380 nm excitation ratio.

[4] = molecular target: T1, RyR1-calstabin1 interaction (Homo sapiens, UniProt P21817+P62942); assay: RyR1-calstabin1 interaction by in situ PLA in human myotubes under SIN1 nitro-oxidative stress; assay type: cell-based; details: pre-treated 12 hours at 150 nM; SIN1 5 mM 30 minutes; FIG. 3
T1 construct: endogenous in cells; host or cells: LHCN-M2 human myotubes (differentiated for 9 days)
T1 sequence (P21817 whole entry): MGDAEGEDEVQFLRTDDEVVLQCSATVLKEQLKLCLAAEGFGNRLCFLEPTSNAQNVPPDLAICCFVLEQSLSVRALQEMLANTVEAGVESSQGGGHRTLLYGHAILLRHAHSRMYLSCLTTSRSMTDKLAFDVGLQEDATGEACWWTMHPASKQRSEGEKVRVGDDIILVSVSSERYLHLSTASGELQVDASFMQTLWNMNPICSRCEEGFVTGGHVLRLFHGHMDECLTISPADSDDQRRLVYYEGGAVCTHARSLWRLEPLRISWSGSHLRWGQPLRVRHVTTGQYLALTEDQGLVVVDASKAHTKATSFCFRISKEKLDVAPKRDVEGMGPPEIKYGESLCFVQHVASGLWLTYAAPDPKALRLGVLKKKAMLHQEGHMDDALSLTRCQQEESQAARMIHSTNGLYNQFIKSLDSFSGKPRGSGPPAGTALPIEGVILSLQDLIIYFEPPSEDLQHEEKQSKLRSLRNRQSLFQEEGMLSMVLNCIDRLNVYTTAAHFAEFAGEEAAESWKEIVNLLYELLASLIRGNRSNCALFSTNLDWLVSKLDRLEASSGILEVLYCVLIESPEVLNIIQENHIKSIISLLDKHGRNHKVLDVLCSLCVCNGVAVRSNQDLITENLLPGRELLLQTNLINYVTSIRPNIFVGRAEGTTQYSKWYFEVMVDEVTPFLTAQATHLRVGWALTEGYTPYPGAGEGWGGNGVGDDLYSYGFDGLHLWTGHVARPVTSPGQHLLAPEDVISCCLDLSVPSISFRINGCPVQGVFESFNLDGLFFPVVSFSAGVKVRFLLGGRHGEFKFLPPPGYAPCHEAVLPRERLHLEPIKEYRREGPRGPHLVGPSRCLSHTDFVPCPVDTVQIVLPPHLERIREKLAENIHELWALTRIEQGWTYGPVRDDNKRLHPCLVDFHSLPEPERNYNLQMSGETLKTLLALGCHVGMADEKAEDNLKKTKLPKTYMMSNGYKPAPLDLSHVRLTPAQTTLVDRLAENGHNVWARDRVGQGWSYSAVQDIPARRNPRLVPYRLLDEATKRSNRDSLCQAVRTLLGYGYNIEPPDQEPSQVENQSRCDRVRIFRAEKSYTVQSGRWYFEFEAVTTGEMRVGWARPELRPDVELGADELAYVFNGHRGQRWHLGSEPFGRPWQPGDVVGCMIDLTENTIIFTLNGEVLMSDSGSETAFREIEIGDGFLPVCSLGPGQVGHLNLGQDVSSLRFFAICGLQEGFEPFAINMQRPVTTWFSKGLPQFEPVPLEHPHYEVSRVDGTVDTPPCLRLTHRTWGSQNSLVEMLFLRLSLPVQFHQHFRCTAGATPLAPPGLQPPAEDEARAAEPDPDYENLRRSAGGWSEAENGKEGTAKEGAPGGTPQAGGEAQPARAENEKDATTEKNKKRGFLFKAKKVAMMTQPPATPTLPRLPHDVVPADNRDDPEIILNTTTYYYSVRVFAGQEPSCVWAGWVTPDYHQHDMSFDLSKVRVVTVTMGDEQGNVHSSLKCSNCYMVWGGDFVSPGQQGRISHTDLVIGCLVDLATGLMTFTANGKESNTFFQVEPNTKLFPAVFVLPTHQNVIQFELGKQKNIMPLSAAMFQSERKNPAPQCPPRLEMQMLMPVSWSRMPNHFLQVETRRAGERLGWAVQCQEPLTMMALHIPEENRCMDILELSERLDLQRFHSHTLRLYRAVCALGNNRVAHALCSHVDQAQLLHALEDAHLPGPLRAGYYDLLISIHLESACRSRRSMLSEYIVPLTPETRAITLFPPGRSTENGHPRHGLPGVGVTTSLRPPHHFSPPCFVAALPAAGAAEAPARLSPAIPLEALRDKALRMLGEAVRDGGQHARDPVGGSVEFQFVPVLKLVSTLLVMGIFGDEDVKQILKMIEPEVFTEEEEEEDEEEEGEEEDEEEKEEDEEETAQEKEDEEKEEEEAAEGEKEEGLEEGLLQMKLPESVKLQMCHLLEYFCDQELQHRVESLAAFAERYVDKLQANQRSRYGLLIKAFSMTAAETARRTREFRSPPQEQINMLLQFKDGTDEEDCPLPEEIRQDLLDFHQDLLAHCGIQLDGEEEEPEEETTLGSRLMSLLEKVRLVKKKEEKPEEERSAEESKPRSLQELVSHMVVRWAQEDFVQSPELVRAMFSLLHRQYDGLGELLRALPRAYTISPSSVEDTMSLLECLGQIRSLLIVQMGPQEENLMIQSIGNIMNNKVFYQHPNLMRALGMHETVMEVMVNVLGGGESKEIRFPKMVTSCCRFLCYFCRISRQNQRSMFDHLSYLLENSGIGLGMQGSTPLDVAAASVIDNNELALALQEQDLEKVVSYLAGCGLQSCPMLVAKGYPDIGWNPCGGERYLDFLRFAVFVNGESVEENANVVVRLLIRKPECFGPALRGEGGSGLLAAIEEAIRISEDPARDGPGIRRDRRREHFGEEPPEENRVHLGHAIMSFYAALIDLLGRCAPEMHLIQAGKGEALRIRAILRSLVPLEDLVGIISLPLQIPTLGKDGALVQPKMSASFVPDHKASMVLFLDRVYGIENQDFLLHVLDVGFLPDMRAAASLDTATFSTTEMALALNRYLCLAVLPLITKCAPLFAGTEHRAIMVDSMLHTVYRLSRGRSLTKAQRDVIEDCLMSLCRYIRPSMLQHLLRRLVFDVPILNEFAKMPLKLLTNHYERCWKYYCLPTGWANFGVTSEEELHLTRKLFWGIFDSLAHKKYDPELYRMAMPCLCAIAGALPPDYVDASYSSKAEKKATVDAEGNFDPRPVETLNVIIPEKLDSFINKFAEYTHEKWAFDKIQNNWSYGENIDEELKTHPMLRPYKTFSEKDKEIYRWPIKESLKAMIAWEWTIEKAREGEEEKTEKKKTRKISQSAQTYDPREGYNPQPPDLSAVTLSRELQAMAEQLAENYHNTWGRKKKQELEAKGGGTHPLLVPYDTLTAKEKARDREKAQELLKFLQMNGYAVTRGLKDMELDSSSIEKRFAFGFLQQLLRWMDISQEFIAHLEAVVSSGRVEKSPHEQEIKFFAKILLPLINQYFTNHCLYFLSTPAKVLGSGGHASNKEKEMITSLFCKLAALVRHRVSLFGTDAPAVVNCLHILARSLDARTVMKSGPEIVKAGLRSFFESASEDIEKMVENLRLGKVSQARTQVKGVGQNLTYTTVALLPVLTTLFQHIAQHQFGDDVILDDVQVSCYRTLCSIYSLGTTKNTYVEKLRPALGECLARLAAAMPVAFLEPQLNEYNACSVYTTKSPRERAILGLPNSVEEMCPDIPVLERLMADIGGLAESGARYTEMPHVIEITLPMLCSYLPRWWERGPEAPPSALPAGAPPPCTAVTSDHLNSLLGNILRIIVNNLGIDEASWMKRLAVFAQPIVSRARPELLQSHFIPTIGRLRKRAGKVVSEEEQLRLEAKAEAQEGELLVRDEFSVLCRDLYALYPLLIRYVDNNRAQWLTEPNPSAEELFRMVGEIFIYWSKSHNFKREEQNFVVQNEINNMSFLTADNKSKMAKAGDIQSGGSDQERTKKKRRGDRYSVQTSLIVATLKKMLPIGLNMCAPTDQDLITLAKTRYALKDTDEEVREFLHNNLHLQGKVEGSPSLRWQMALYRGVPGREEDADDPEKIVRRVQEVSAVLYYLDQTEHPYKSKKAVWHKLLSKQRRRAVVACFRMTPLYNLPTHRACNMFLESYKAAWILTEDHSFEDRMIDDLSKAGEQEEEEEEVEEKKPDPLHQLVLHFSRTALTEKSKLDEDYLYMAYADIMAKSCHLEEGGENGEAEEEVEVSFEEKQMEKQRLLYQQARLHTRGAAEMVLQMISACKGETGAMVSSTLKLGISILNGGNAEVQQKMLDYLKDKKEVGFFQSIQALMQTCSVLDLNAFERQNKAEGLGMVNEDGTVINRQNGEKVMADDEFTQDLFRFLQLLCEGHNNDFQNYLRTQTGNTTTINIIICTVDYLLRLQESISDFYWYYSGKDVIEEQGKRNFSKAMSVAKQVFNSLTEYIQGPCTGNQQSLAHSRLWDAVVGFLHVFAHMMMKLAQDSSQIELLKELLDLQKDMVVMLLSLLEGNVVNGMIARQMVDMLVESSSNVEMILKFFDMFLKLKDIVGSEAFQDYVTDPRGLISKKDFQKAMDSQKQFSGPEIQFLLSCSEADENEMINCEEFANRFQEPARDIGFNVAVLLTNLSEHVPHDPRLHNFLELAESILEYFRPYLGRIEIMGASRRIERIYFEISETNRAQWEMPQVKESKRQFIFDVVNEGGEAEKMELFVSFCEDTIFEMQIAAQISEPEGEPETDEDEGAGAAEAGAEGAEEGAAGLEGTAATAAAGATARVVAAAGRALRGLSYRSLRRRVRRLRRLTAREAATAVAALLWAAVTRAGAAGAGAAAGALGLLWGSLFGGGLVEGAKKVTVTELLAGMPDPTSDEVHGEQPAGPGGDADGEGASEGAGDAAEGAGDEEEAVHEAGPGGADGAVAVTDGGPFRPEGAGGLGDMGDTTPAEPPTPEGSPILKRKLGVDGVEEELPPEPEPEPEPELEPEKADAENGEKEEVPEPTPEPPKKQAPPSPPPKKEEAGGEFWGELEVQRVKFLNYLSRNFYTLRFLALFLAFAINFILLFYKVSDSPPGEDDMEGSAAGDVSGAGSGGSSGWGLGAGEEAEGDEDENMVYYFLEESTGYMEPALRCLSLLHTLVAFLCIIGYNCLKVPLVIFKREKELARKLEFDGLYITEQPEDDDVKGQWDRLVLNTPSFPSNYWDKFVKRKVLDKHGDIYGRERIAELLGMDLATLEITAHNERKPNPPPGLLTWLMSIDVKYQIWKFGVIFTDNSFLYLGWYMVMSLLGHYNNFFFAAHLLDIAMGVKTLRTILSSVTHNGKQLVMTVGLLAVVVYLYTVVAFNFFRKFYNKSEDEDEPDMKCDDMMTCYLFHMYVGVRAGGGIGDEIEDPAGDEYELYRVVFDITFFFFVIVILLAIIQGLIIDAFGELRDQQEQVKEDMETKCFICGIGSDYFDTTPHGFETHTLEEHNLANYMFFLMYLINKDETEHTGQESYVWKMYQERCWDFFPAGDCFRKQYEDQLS
T1 sequence (P62942 2-108 limits assumed): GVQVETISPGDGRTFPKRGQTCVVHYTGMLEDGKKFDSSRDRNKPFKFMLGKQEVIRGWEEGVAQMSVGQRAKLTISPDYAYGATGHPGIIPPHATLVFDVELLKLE
Experimental: This assay was carried out in human control myotubes LHCN-M2 after 9 days in differentiation medium. Said myotubes were pre-treated for 12 hours with compounds AHK1 and AHK2 at a concentration of 150 nM. After treatment, the myotubes were subjected to peroxynitrite-induced nitro-oxidative stress by means of the addition of SIN1 (5 mM) for 30 minutes. RyR1-calstabin colocalization was analyzed by means of the in situ proximity ligation technique (in situ PLA) for which Sigma's Duolink II Network Fluorescence Kit and RyR1- and calstabin 1-specific antibodies were used. This technique allows detecting the exact location of two antigens located at a distance less than 40 nm from one another. To determine RyR1-calstabin-1 colocalization, 3 photographs were quantified for each condition with about 9 myotubes per field, using Image J computer software (http://rsb.info.nih.gov/ij/download.html). The colocalization area in each image was normalized to the myosin expression area, which was determined by means of immunofluorescence with a fluorescein-conjugated specific antibody.

mdx mice [5] = assay: Grip strength of dystrophic mdx mice; assay type: in vivo, mouse; details: 0.25 mg/mL in drinking water, one-month old mdx mice
Experimental: One-month old male dystrophic mdx mice supplied by Jackson Laboratory (https://www.jax.org/strain/001801) were used. The biological assays for measuring the effect of the Ahulken (AHK) compounds on muscle function were performed with one-month old mice, whereas the in vivo assays for determining the effect on the heart and CNS were performed with four-month old mice. The one-month old mice were treated with compound AHK1 or compound AHK2 for 5 weeks, where said compounds were administered in drinking water at a concentration of 0.25 mg/mL. The muscle strength of the front paws was measured every week using a grip strength meter and the obtained value was normalized by the body weight of the animal. To that end, the indications described in the TREAT-NMD Neuromuscular Network protocol (http://www.treat-nmd.eu/downloads/file/sops/dmd/MDX/DMD_M.2.2.001.pdf) were followed.

mdx mice [6] = assay: Muscle degeneration/regeneration: percentage of central nuclei in muscle cryosections of mdx mice; assay type: in vivo, mouse; details: 5-week treatment of mdx mice; 0.25 mg/mL in drinking water; FIG. 5
Experimental: After concluding the 5-week treatment, the tibialis anterior muscle was obtained and processed for subsequent biochemical and immunohistological analysis to determine the degree of muscle damage. Cell-death derived regeneration was determined in muscle cryosections by means of quantifying the percentage of central nuclei using standard immunofluorescence techniques for detecting collagen IV and cell nuclei.

mdx mice [7] = assay: Exacerbated defense response (freezing) after acute stress in mdx mice; assay type: in vivo, mouse; details: four-month old mdx mice; five-week treatment, 0.25 mg/mL in drinking water; FIG. 7
Experimental: To determine the effect of the compounds according to the invention on the heart and CNS, four-month old mice were treated for 5 weeks with compound AHK2 in drinking water at a concentration of 0.25 mg/mL. The four-month old mdx mice show an exacerbated defense response after acute stress which is independent of motor, cardiac and respiratory deficiencies, and is controlled by central mechanisms (FIG. 7). Acute stress was brought about by means of manual immobilizations for 15 seconds in a posture commonly used for performing intraperitoneal injections. After acute stress, the mice are monitored for 1 minute and the % of freezing time or tonic immobility periods of at least 1 second with 90% immobility sensitivity is calculated.

mdx mice [8] = assay: Isoproterenol-induced cardiomyopathy in mdx mice (Evans Blue uptake); assay type: in vivo, mouse; details: four-month old mdx mice; 5-week treatment, 0.25 mg/mL in drinking water; FIG. 8
Experimental: The myocardium of the four-month old dystrophic mdx mice is highly susceptible to mechanical stress and the compound isoproterenol induces cardiomyopathy in these mice (FIG. 8). Cardiomyocyte sarcolemma integrity was determined by means of measuring the uptake of Evans Blue dye that accumulates in cardiomyocytes with membrane damage. Evans Blue was administered 24 hours before extracting the hearts at a concentration of 10 mg/ml by means of intraperitoneal injection (10 μl/g of body weight). Damage with isoproterenol was carried out by means of 3 sequential intraperitoneal injections of beta-isoproterenol (350 ng/g of body weight) 18, 20 and 22 hours after administering Evans Blue in order to determine the degree of muscle damage. Cell-death derived regeneration was determined in muscle cryosections by means of quantifying the percentage of central nuclei, using standard immunofluorescence techniques for detecting collagen IV and cell nuclei.

Compound: 4-[3-(4-benzylpiperidinyl)-propanoyl]-2,3,4,5-tetrahydro-1,4-benzothiazepine [JTV-519]
- adrenaline- and caffeine-induced myocardial necrosis [1]: inhibits

Compound: COc1ccc(SCc2cn(CCN(C)C)nn2)cc1 [AHK2, 1-[2-(N,N-dimethylamino)ethyl]-4-[4-(methoxy)phenylthiomethyl]-1H-1,2,3-triazole]
- in vitro acute toxicity against human myotubes ([2]; concentrations between 10 nM and 2 mM, FIG. 1): do not show in vitro acute toxicity
- intracellular calcium levels at rest in MDX fibers [3]: brought intracellular calcium levels back to the control levels
- dissociation of the RyR1-Calst1 complex in the presence of SIN1 [4]: partially prevented
- grip strength compared to untreated littermates (mdx mice [5]; after 2 weeks of treatment): increased significantly
- increase of muscle strength (mdx mice [5]; after 5 weeks of treatment, FIG. 4): 20%
- percentage of central nuclei (mdx mice [6]): significantly reduced
- exacerbated defense response-related CNS phenotype (% of freezing time after acute stress) (mdx mice [7]): significantly improves
- cardiomyocyte sarcolemma integrity (Evans Blue uptake) (mdx mice [8]): increases
- isoproterenol-induced damage of the myocardium (mdx mice [8]): protects the myocardium from isoproterenol-induced damage

Compound: O=C(O)Cn1cc(CSc2cccc(Cl)c2)nn1 [Example 23, 1-carboxymethyl-4-[3-(chloro)phenylthiomethyl]-1H-1,2,3-triazole]
- melting point: 146 to 148 °C

Compound: COc1ccc2c(c1)CN(C)CCS2 [Example S-107, reference compound]
- cellular toxicity ([2]; concentration of 1 mM): 100%

Second part, the compound after the results:

- melting point: 106 to 115 °C
Compound: COc1cccc(S(=O)(=O)Cc2cn(CC(=O)O)nn2)c1 [Example 22, 1-carboxymethyl-4-[3-(methoxy)phenylsulfonylmethyl]-1H-1,2,3-triazole]

- melting point: 163 to 170 °C
Compound: COc1ccc(SCc2cn(CC(=O)O)nn2)cc1 [Example 11, 1-carboxymethyl-4-[4-(methoxy)phenylthiomethyl]-1H-1,2,3-triazole]
